According to US6632798B2, “Methods for inhibiting angiogenesis” (Antigen Biologicals Corporation, priority 2001, dated 2003):
Marks after values point to notes of the source that are not given here.

Experiments:
[1] = test system: blood vessels in the chick chorioallantoic membrane (CAM); assay: chick chorioallantoic membrane (CAM) assay, injection into the yolk sac; type: in vivo, chick embryo; conditions: for Number Nodes + Ends (mean ± S.E.): control 271 ± 25, P < 0.0001 vs control
Excerpt: Compounds suitable for use in the methods of the present invention can readily be identified using in vitro and in vivo screening assays. Such assays may screen for the ability of a particular compound to inhibit angiogenesis or the vascularization of endothelial cells in vitro and in vivo. For instance, the chick embryo chorioallantoic membrane (CAM) assay, which is described in more detail below, can be used to screen a given compound for its ability to inhibit vascularization. In the chorioallantoic membrane assay as performed in this invention, fertilized chick embryos are injected with a compound on day 3 or 4. The embryos are then allowed to develop for […] post injection upon which the shell is cracked and the chorioallantoic membrane is photographed. Based on the number of blood vessel nodes and ends present in the CAM the complexity of vascularization can be assessed. This assay can be used to assess the anti-angeogenic properties of the compounds in this invention. It will be readily apparent to those skilled in the art that the compounds in this invention can be administered alone, in the form of a pharmaceutically acceptable salt and/or in the form of a pharmaceutical composition. This example illustrates the anti-angiogenic properties of Oleuropein in the chick chorioallantoic membrane assay (CAM). The endpoint of the CAM assay was a quantitative determination of the number of branch points and ends of blood vessels in the chorioallantoic membrane. Such a quantitation would illustrate the complexity of the blood vasculature in the developing chorioallantoic membrane. The decrease in the complexity of the blood vasculature of the chorioallantoic membrane as a result of the application of Oleuropein indicates its anti-angiogenic properties. The CAM in the developing chick embryo is an excellent in vivo system for studying angiogenesis, because there is ongoing new blood vessel growth. The CAM assay involves the monotering of the blood vasculature of the developing chorioallantoic membrane of live chick embryos. Various CAM assay approaches have been developed. These include the culturing of live chick embryos in Petri dishes under special sterile conditions. Another approach has been to cut a window in the shell of fertilized eggs and directly apply the compound to be studied in the window using a filter paper. We used a modified approach to the CAM assay, which includes a less invasive method for introducing the compound Oleuropein. Fertilized chicken eggs where candled on the third day of development. The blood vasculature and the yolk were identified. A small 1 mm hole was made in the shell. A small gauge needle carrying 0.4 ml of Oleuropein diluted in saline/water was injected directly into the yolk sac. The hole was taped and the eggs were returned to the incubator for further development. After 3 days the eggs were removed and cracked in a white dish and the chorioallantoic membrane was photographed. Control eggs were injected with saline/water. Fresh fertile eggs were incubated for three days in a standard egg incubator. Temperature and humidity were kept constant at 100° F. and 65% respectively. On Day 3, eggs were […] using a police flash light. Embryo and yolk were identified. The surface of the shell was cleaned with an alcohol swab. The egg shell was pierced with a lancet making a 1 millimeter hole. A needle was used to withdraw 0.5 ml of yolk. A 0.5 ml injection was administered directly into the yolk sack. […] Experimental eggs were injected with a 0.1% and 1.0% concentration of Oleuropein. Control eggs were injected with an equivalent amount of water. After injection the hole was covered with a small piece of scotch tape and the eggs were returned to the incubator for further development. On day 3 post injection the eggs were removed from the incubator and […]. They were cracked gently using a butter knife over a white dish. Embryo and CAM were carefully layed out for observation and photography. […]

[2] = test system: induced blood vasculature of the adult mouse ear; assay: adult mouse ear model, blood vessel growth induced by sodium hydroxide burn; type: in vivo; conditions: 0.025 grams in 0.25 ml PBS intraperitoneally once a day, 3 days before and 3 days after NaOH burn, FIG. 7
Excerpt: This example illustrates the anti-angiogenic properties of Oleuropein in the adult mouse ear model. The endpoint of the adult mouse ear model assay was a direct visualization of the number of branch points and ends of blood vessels. Such visualization would illustrate the complexity of the blood vasculature in the adult mouse ear. The decrease in the complexity of the induced blood vasculature of the adult mouse ear as a result of the application of Oleuropein would indicate its anti-angiogenic properties.
In the previous model (the CAM in the developing chick embryo), although an excellent in vivo system for studying angiogenesis, because there is ongoing new blood vessel growth in the growing embryo, we tested another model in assessing whether Oleuropein can inhibit induced blood vessel growth in an adult mammal. The model we chose to use was the adult mouse ear. The mouse ear is vascularized and is thin enough to be directly visualized by a light microscope. If a stimulus is applied to the adult mouse ear existing blood vessels are capable of sprouting new ones (angiogenesis). Using this model anti-angiogenic compounds can be tested for their effects. We applied a sodium hydroxide burn, which stimulated the existing blood vessels in the adult mouse ear to sprout new blood vessels. […]

[3] = Oleuropein treated eggs, FIG. 5

C/C=C1/[C@H](O[C@@H]2O[C@H](CO)[C@@H](O)[C@H](O)[C@H]2O)OC=C(C(=O)OC)[C@H]1CC(=O)OCCc1ccc(O)c(O)c1 [Oleuropein]
effect on CAM vasculature (photographs) ([1]; 0.93 μmol/egg, FIG. 2 vs control FIG. 3): potently inhibited CAM vasculature | % Inhibition of blood vessel growth compared to control ([1]; 0.93 μmole/egg): 73% | Number Nodes + Ends (mean ± S.E.) ([1]; 0.93 μmole/egg into yolk sac of three-day-old chick embryos): 72 ± 11^b | effect on CAM vasculature (photographs) ([1]; 9.3 μmol/egg, FIG. 1 vs control FIG. 3): number of blood vessels is greatly diminished and branching is less complex than in controls | % Inhibition of blood vessel growth compared to control ([1]; 9.3 μmole/egg): 84% | Number Nodes + Ends (mean ± S.E.) ([1]; 9.3 μmole/egg into yolk sac of three-day-old chick embryos): 44 ± 5.3^a | CAM diameter, smaller than control CAM [1, 3]: about 50% | embryo size, smaller than untreated control embryos [1, 3]: about 60% | embryo viability ([1]; higher dose of Oleuropein): did not effect embryo viability | inhibition of induced blood vessel growth in the ear (photographs) [2]: potently inhibited existing blood vessels from sprouting
